In patent US20130017540A1, “IDENTIFICATION OF MUTATION TYPES ASSOCIATED WITH ACQUIRED RESISTANCE AND METHODS FOR USING SAME” (priority 2011, published 2013):

Tested on: KCL-22 cells
Assay: Soft agar colony formation assay with imatinib
Format: cell-based
Conditions: 2.5 μM imatinib, one million KCL-22 cells per well, 3 weeks
Description: One million KCL-22 cells were seeded per well in triplicate and incubated for 3 weeks. Plates were then stained with 0.005% Crystal Violet for 1 hour, and colonies were scored by microscope.

## Cc1ccc(NC(=O)c2ccc(CN3CCN(C)CC3)cc2)cc1Nc1nccc(-c2cccnc2)n1 [imatinib]
  T315I mutation rate on soft agar, μ: 2.40 × 10^−4 T315I mutations incurred per BCR-ABL fusion gene
Listed as Imatinib
  T315I mutation rate on soft agar, μ: 2.40 × 10^−4 ± 2.89 × 10^−5 T315I mutations incurred per BCR-ABL fusion gene
